For this assay, the system named is NF-κB. The assay can be described thus: NF-κB-mediated induction of IL-8 mRNA by TNF-α in MCF-7 cells. Format: cell-based, human. On the procedure: FIG. 14 illustrates results of testing for specific inhibition of E2-ERα-mediated gene expression. The effects of TPSF on an NF-κB regulated gene, IL-8, were tested in MCF-7 cells maintained for 24 hours in medium containing 10 ng/ml TNF-α alone or TNF-α and 30 μM TPSF. RNA was extracted and IL-8 mRNA levels were measured by quantitative (q)RT-PCR. Data shown is the average of 3 experiments±SEM.
Endogenous Gene Expression. MCF-7 cells or MCF7ERαHA cells were maintained for 4 days in medium containing 5% CD calf serum (MCF-7 cells) or 10% 6×CD-FBS (MCF7ERαHA cells). In assays of TPSF inhibition of PI-9 induction, cells were plated, incubated for 24 hours in the indicated concentrations of TPSF and then maintained 4 hours with and without E2, with and without TPSF. To induce ERα, MCF7ERαHA cells were also maintained in 0.5 μg/ml Dox for 24 hours prior to addition of E2 or OHT with or without TPSF. For induction of cyclin D1, 24 hours after plating the cells, E2 with and without TPSF was added, the cells were maintained for 24 hours, RNA was extracted and mRNA levels were determined by quantitative RT-PCR as described (19, 26). Actin mRNA levels were used as the qRT-PCR internal standard. The primers and sequences used in qRT-PCR were as follows.

“Also recorded” adds a separate entry of the source.

With `Cn1c(=S)c2[nH]c(SCCCC(=O)c3ccc(F)cc3)nc2n(C)c1=O` [TPSF, Butyrophenone, p-fluoro-4-(1,2,3,6,-tetrahydro-1,3-dimethyl-2-oxo-6-thionopurin-8-ylthio)], the “effect on NF-κB-mediated induction of IL-8 mRNA by TNF-α” value (30 μM, 10 ng/ml TNF-α, 24 h) is given as “no effect; also recorded: absence of an effect”. Besides, the half-inhibitory concentration (IC50) (Homo sapiens, MCF7, TNF-α, IL-8 mRNA, read-out: IC50 for inhibition of NF-κB gene expression) was more than 30 µM.

The values above are taken from patent publication US8871751B2, “Compositions and methods relating to nuclear hormone and steroid hormone receptors including inhibitors of estrogen receptor alpha-mediated gene expression and inhibition of breast cancer” (The Board of Trustees of the University of Illinois, priority 2008, dated 2014).
